In ChEMBL document CHEMBL1201862, “PubChem BioAssay data set” (2004):
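96-well plates; 48 h exposure; 5 concentrations. Endpoints by linear interpolation between flanking doses. Not reached: highest tested concentration assigned. Here, GI50 denotes the concentration required for 50% inhibition of growth.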 Activity calls are given as the source filed them. Rule as the data show it: active = GI50 up to about 1.1 µM and inactive = higher.

Tests used:
Assay in all cases: inhibition of tumour cell growth, NCI panel, 48 h
[1] = system: NCI-H23
[2] = system: Malme-3M
[3] = system: UACC-62
[4] = system: RXF 393
[5] = system: OVCAR-5
[6] = system: SNB-19
[7] = system: A549
[8] = system: SF-539
[9] = system: HOP-62
[10] = system: NCI-H460
[11] = system: TK-10
[12] = system: A498
[13] = system: IGROV-1
[14] = system: CAKI-1
[15] = system: K562
[16] = system: NCI-H226
[17] = system: U-251
[18] = system: COLO 205
[19] = system: KM12
[20] = system: SK-MEL-28

Row | Compound | GI50 [1] | GI50 [2] | GI50 [3] | GI50 [4] | GI50 [5] | GI50 [6] | GI50 [7] | GI50 [8] | GI50 [9] | GI50 [10] | GI50 [11] | GI50 [12] | GI50 [13] | GI50 [14] | GI50 [15] | GI50 [16] | GI50 [17] | GI50 [18] | GI50 [19] | GI50 [20]
1 | CCN1CCN=c2c3cc(OC)ccc3n3cnc4ccc1c2c43 | 0.328 µM (active) | 0.267 µM (active) | 0.246 µM (active) | 0.33 µM (active) | 0.316 µM (active) | 0.301 µM (active) | 0.192 µM (active) | 0.123 µM (active) | 0.193 µM (active) | 0.0948 µM (active) | 0.411 µM (active) | 0.225 µM (active) | 2.02 µM (inactive) | 0.34 µM (active) | 0.0555 µM (active) | 0.323 µM (active) | 0.192 µM (active) | 0.15 µM (active) | 0.395 µM (active) | 0.506 µM (active)
2 | O=C(CC1(O)C(=O)Nc2c(Cl)cc(Cl)cc21)c1cccc2ccccc12 (stereo not given) | 16.9 µM (inactive) | 19.5 µM (inactive) | 14.9 µM (inactive) | 20.6 µM (inactive) | 22.4 µM (inactive) | 14.1 µM (inactive) | 15.1 µM (inactive) | 17.1 µM (inactive) | 16.5 µM (inactive) | 16.6 µM (inactive) | 14.1 µM (inactive) | 21.5 µM (inactive) | 18.6 µM (inactive) | 11.8 µM (inactive) | 16.6 µM (inactive) | 16.5 µM (inactive) | 15.5 µM (inactive) | 17 µM (inactive) | 16 µM (inactive) | 18.7 µM (inactive)
3 | COc1ncc(C=C(C#N)C#N)c(OC)n1 | 31.3 µM (inactive) | 35.2 µM (inactive) | 33.8 µM (inactive) | > 100 µM (inactive) | 86.7 µM (inactive) | 52.6 µM (inactive) | > 100 µM (inactive) | 30.8 µM (inactive) | 83.6 µM (inactive) | 41 µM (inactive) | 37.3 µM (inactive) | > 100 µM (inactive) | 59.3 µM (inactive) | 36.1 µM (inactive) | 38.6 µM (inactive) | > 100 µM (inactive) | 43.6 µM (inactive) | 36 µM (inactive) | 50 µM (inactive) | 44.8 µM (inactive)
4 | Cc1cc(NS(=O)(=O)c2ccc(Nc3c4ccccc4nc4c(C(=O)N5CCN(CCO)CC5)cccc34)cc2)no1 | > 100 µM (inactive) | > 100 µM (inactive) | > 100 µM (inactive) | 22.3 µM (inactive) | > 100 µM (inactive) | > 100 µM (inactive) | > 100 µM (inactive) | > 100 µM (inactive) | > 100 µM (inactive) | > 100 µM (inactive) | > 100 µM (inactive) | > 100 µM (inactive) | > 100 µM (inactive) | > 100 µM (inactive) | 57.8 µM (inactive) | > 100 µM (inactive) | > 100 µM (inactive) | > 100 µM (inactive) | > 100 µM (inactive) | > 100 µM (inactive)
5 | CCN(CC)c1c(C(C)(C)C)c(=O)n2ccsc2c1OC(C)=O | 16.1 µM (inactive) | 12.5 µM (inactive) | 16.9 µM (inactive) | 16.9 µM (inactive) | 15.8 µM (inactive) | 16.6 µM (inactive) | 15 µM (inactive) | 19.1 µM (inactive) | 13.3 µM (inactive) | 16.5 µM (inactive) | 19.8 µM (inactive) | 19.2 µM (inactive) | 16.8 µM (inactive) | 18.6 µM (inactive) | 17.6 µM (inactive) | 15.4 µM (inactive) | 17 µM (inactive) | 16.9 µM (inactive) | 15.5 µM (inactive) | 17.1 µM (inactive)
